# According to patent US20210032257A1, “(E)-1-(4-(DIMETHYLAMINO)BUT-2-ENOYL)PYRROLIDIN-3-YL 4-((3-ISOPROPYL-5-METHYLPYRAZOLO[1,5-A]PYRIMIDIN-7-YL)AMINO)PIPERIDINE-1-CARBOXYLATE FOR INHIBITING CDK7” (Eli Lilly and Company, priority 2017, published 2021):
# How the values were obtained:
# CDK4/CycD1 = target: T1, CDK4/CycD1 (Homo sapiens, UniProt P11802); assay: ProQinase WT Profiler radiometric protein kinase assay; type: biochemical; conditions: non standard IC50 from 4 concentrations, kinase 3.3 nM, ATP 3 μM
# T1 construct: purchased ProQinase
# Procedure: (§1) Kinase inhibition profile of compound is determined by measuring residual activity values at four concentrations in singlicate in 320 wild-type protein kinase assays. The compounds are tested at 20 μM, 2 μM, 0.2 μM and 0.02 μM in singlicate. The final DMSO concentration in all reaction cocktails (including high and low controls) is 1%.
# (§2) A radiometric protein kinase assay (33PANQINASE® Activity Assay, ProQinase) is used for measuring the kinase activity of the 320 protein kinases. All kinase assays are performed in 96-well FLASHPLATES™ in a 50 μL reaction volume. The reaction cocktail is pipetted in 4 steps in the following order:
# (§3) All PKC assays (except the PKC-mu and the PKC-nu assay) additionally contain 1 mM CaCl2). 4 mM EDTA, 5 μg/mL Phosphatidylserine and 1 μg/mL 1,2-Dioleyl-glycerol. The CAMK1D, CAMK2A, CAMK2B, CAMK2D, CAMK2G, CAMK4, CAMKK1, CAMKK2, DAPK2, EEF2K, MYLK, MYLK2 and MYLK3 assays additionally contain 1 μg/mL Calmodulin and 0.5 mM CaCl2). The PRKG1 and PRKG2 assays additionally contain 1 μM cGMP. The DNA-PK assay additionally contained 2.5 μg/mL DNA.
# (§4) The protein kinase reaction cocktails are incubated at 30° C. for 60 minutes. The reaction is stopped with 50 μL of 2% (v/v) H3PO4, plates are aspirated and washed two times with 200 μL 0.9% (w/v) NaCl. […] All protein kinase assays are performed with a BeckmanCoulter BIOMEK® 2000/SL robotic system. All protein kinases provided by ProQinase are expressed in Sf9 insect cells or in E. coli as recombinant GST-fusion proteins or His-tagged proteins, either as full-length or enzymatically active fragments. All kinases are produced from human cDNAs and purified by either GSH-affinity chromatography or immobilized metal. Affinity tags are removed from a number of kinases during purification. The purity of the protein kinases is examined by SDS-PAGE/Coomassie staining, the identity is checked by mass spectroscopy. Kinases from external vendors (CAR=Carna Biosciences Inc.; INV=Life Technologies (Invitrogen Corporation™); MIL=Merck-Millipore (Millipore Corporation™), see Table 1) are expressed, purified and quality-controlled by virtue of the vendors readings.
# (§5) For each kinase, the median value of the cpm of three wells is defined as “low control” (n=3). This value reflects unspecific binding of radioactivity to the plate in the absence of a protein kinase but in the presence of the substrate. […] The difference between high and low control of each enzyme is taken as 100% activity. As part of the data evaluation, the low control of each kinase is subtracted from the high control value as well as from their corresponding “compound values”. The residual activity (in %) for each compound well is calculated by using the following formula: Res. Activity (%)=100×[(signal of compound−low control)/(high control−low control)]. Non Standard IC50s are calculated using a customized excel spreadsheet in conjunction with XLFit Add-in. Due to the low number of data points, (4) XL-Fit calculates a non standard IC50 using a four parametric equation where three parameters are locked to fixed values.
# (§6) A: Minimum value of activity, Also known as Bottom. Fixed to 0 B: Maximum value of activity, Also known as Top. Fixed to 100 C: Inflexion point of the curve D: Hill Slope. Fixed to 1 Y: The dependent variable (i.e. what you measure as the signal) X: The independent variable (i.e. what you control, such as, dose, concentration, etc.)
# (§7) The way to calculate the Non Standard IC50 is to assign random values to C parameter and repeat it iteratively. The algorithm then measures the differences in the sum of the residuals squared and will look for successive consecutive iterations where the change in the residuals is converging.
# CDK7/CycH/MAT1 = target: T2, CDK7/CycH/MAT1 (Homo sapiens, UniProt P50613); assay: as above; type: biochemical; conditions: non standard IC50 from 4 concentrations, kinase 3.3 nM, ATP 3 μM
# T2 construct: purchased ProQinase
# Procedure: as §1, §2, §3, §4, §5, §6, §7
# A2780 = assay: Cell Proliferation Assay (CELL TITER GLO); type: cell-based; conditions: Homo sapiens, 168 h; A2780, Ovarian Cancer, seven days
# Procedure: (§8) Cell lines are plated at the density 5000 cells per well in 100 μL per well growth medium into a white 96-well cell culture plate. See Table 2 for cell line and culture medium information. Plates are incubated at 37° C. and 5% CO2. The following day, a serial dilution of the test compound is prepared by diluting the compound 1:3 in DMSO for 10 points. The DMSO plate is 1000× the final concentration. In addition to the CDK7 inhibitor, a DMSO alone column is included as a maximum growth control and 10 μM staurosporine final column is included as a maximum growth inhibition control. A 10× dilution plate is then prepared by adding 2 μL per well from the 1000×DMSO plate to 198 μL per well of OMEM (Life Technologies, Carlsbad, Calif., cat #31985-070). Cells are treated with indicated compound by adding 11 μL per well from the 10×OMEM plate to the cell plate containing 100 μL per well growth medium for a 1× final concentration. Plates are placed back into the incubator at 37° C. and 5% CO2. Seven days after compound addition, plates are removed from the incubator and allowed to equilibrate to RT. CELL TITER GLO® reagent is thawed at room temperature and then prepare by mixing one vial of assay buffer with one vial of substrate and swirl gently to mix. CELL TITER GLO® reagent is then added to the cell plate, 100 μL per well, and place on a Titer Plate Shaker at speed setting 2 for 15 minutes at room temperature. After 15 minute incubation on shaker, luminescence is read, 1 second per well, using a Wallac VICTOR2™. Nonlinear regression and sigmoidal dose-response curves are used to calculate the half maximal inhibitory concentration (IC50) with Graphpad Prism 6 software.
# HCC1806 = assay: Cell Proliferation Assay (CELL TITER GLO); type: cell-based; conditions: Homo sapiens, 168 h; HCC1806, Breast Cancer, seven days
# Procedure: as §8
# HCT116 = assay: Cell Proliferation Assay (CELL TITER GLO); type: cell-based; conditions: Homo sapiens, HCT-116, 168 h; HCT116, Colorectal Cancer, seven days
# Procedure: as §8
# MCF7 = assay: Cell Proliferation Assay (CELL TITER GLO); type: cell-based; conditions: Homo sapiens, 168 h; MCF7, Breast Cancer, seven days
# Procedure: as §8
# NCI-H446 = assay: Cell Proliferation Assay (CELL TITER GLO); type: cell-based; conditions: Homo sapiens, 168 h; NCI-H446, Lung Cancer, seven days
# Procedure: as §8
# NCI-H460 = assay: Cell Proliferation Assay (CELL TITER GLO); type: cell-based; conditions: Homo sapiens, 168 h; NCI-H460, Lung Cancer, seven days
# Procedure: as §8
# SNU-16 = assay: Cell Proliferation Assay (CELL TITER GLO); type: cell-based; conditions: Homo sapiens, 168 h; SNU-16, Gastric Cancer, seven days
# Procedure: as §8
# T2 sequence (P50613 whole entry): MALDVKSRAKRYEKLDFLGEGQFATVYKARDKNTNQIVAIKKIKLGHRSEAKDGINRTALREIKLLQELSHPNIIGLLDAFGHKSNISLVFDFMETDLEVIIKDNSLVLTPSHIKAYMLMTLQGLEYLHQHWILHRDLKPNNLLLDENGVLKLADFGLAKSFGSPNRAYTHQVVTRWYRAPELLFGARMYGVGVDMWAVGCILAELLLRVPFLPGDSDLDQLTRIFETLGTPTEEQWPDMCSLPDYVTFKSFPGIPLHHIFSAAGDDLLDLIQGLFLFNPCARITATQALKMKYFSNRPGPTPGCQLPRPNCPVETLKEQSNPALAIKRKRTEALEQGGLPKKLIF
# T2 sequence (P51946 whole entry partner): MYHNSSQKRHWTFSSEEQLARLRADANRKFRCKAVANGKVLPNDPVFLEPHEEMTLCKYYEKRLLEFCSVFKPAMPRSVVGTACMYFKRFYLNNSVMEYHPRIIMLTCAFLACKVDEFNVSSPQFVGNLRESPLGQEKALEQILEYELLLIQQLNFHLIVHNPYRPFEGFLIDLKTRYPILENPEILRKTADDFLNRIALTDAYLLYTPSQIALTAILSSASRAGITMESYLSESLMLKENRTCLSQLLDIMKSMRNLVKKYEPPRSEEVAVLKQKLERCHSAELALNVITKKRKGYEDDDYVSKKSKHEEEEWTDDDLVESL
# T2 sequence (P51948 whole entry partner): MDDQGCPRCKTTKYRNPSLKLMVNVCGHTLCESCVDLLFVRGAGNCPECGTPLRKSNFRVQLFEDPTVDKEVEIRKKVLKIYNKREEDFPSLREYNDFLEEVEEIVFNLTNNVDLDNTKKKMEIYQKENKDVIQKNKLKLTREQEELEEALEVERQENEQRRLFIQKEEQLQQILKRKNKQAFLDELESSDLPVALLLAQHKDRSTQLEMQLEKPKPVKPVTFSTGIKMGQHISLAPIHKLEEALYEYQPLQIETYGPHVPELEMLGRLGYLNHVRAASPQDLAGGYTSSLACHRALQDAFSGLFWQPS
# T1 sequence (P11802 whole entry): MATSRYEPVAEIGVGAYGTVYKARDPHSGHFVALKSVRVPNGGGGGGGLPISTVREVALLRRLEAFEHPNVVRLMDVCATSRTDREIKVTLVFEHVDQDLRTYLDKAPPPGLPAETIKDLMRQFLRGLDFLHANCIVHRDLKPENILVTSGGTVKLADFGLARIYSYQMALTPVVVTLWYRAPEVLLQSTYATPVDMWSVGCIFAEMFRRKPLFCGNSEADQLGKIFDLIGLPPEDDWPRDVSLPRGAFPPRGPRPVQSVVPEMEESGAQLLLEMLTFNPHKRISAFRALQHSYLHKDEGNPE
# T1 sequence (P24385 whole entry partner): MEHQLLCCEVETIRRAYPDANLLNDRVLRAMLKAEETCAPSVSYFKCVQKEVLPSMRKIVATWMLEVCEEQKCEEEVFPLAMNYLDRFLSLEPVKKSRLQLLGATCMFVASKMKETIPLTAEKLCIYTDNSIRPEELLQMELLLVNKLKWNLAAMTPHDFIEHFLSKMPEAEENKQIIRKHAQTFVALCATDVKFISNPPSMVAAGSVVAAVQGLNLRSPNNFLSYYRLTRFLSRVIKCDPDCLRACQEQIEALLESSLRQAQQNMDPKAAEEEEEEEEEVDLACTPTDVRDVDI
smiles,measurement,setting,value
"Cc1cc(NC2CCN(C(=O)O[C@H]3CCN(C(=O)/C=C/CN(C)C)C3)CC2)n2ncc(C(C)C)c2n1 [Example 1, [(3S)-1-[(E)-4-(dimethylamino)but-2-enoyl]pyrrolidin-3-yl] 4-[(3-isopropyl-5-methyl-pyrazolo[1,5-a]pyrimidin-7-yl)amino]piperidine-1-carboxylate]",IC50,CDK4/CycD1,2830 nM
same,IC50,CDK7/CycH/MAT1,92.8 nM
same,IC50,A2780,26.5 nM
same,IC50,HCC1806,25.5 nM
same,IC50,HCT116,46 nM
same,IC50,MCF7,32 nM
same,IC50,NCI-H446,14.2 nM
same,IC50,NCI-H460,47.9 nM
same,IC50,SNU-16,23.1 nM
